Results on two molecules are retold here after ChEMBL document CHEMBL6134779, “Design of Proteolytic-Resistant Antifungal Peptides by Utilizing Minimum d-Amino Acid Ratios” (J Med Chem, 2024).

Series [1] deals with Candida albicans. Nature of the series: Antifungal activity against Candida albicans CGMCC 2.2086 assessed as inhibition of fungal growth incubated for 48 hrs. It is filed as functional.
For a further series, the system named is Candida tropicalis. Kind of series: Antifungal activity against Candida tropicalis CGMCC 2.1975 assessed as inhibition of fungal growth incubated for 48 hrs. It is filed as functional.
The test system of series [2] is Candida albicans. Kind of series: Antifungal activity against Candida albicans SP3902 assessed as inhibition of fungal growth incubated for 48 hrs. Type of series: functional.
Series [3] concerns Candida albicans. Kind of series: Antifungal activity against Candida albicans SP3903 assessed as inhibition of fungal growth incubated for 48 hrs. Type of series: functional.
Series [4] concerns Candida albicans. Kind of series: Antifungal activity against Fluconazole-resistant Candida albicans 58288 assessed as inhibition of fungal growth incubated for 48 hrs. Type of series: functional.
The subject of series [5] is Candida albicans. Kind of series: Antifungal activity against Candida albicans SP3876 assessed as inhibition of fungal growth incubated for 48 hrs. Type of series: functional.
The test system of series [6] is Candida albicans. Nature of the series: Antifungal activity against Candida albicans SP3931 assessed as inhibition of fungal growth incubated for 48 hrs. It is filed as functional.
Series [7] concerns Candida albicans. Nature of the series: Antifungal activity against Candida albicans 14936 assessed as inhibition of fungal growth incubated for 48 hrs. Type of series: functional.
The test system of series [8] is Candida albicans. Kind of series: Antifungal activity against Candida albicans 17546 assessed as inhibition of fungal growth incubated for 48 hrs. Type of series: functional.
Series [9] deals with Candida albicans. Nature of the series: Antifungal activity against Fluconazole-resistant Candida albicans 56214 assessed as inhibition of fungal growth incubated for 48 hrs. It is filed as functional.
The subject of series [10] is Candida albicans. Nature of the series: Antifungal activity against Candida albicans 56452 assessed as inhibition of fungal growth incubated for 48 hrs. Type of series: functional.
A further series has as its system Candida parapsilosis. Kind of series: Antifungal activity against Candida parapsilosis CGMCC 2.3989 assessed as inhibition of fungal growth incubated for 48 hrs. It is filed as functional. To be noted: Lodderomyces parapsilosis.
Series [11] can be described thus: Hemolytic activity in human red blood cells assessed as hemolysis incubated for 1 hr. Type of series: toxicity, cell-based, Erythrocyte.
A short description of series [12]: Hemolytic activity in human red blood cells assessed as hemolysis rate at 512 uM incubated for 1 hr relative to control. Type of series: toxicity, cell-based, Erythrocyte. To be noted: read-out: Activity.
Series [13] in a line: Cytotoxicity against porcine IPEC-J2 cells assessed as reduction in cell viability at 128 uM incubated for 4 hrs by MTT assay. To be noted: pig, ipec-j2, 4 h. Type of series: toxicity, cell-based, Sus scrofa. (In general: Tetrazolium assays rely on reduction of a dye to a coloured formazan, in cell work by metabolically active cells.)
A further series concerns HEK293. Kind of series: Cytotoxicity against HEK293 cells assessed as reduction in cell viability at 128 uM incubated for 4 hrs by MTT assay. To be noted: human, hek293, 4 h. Type of series: toxicity, cell-based.
Series [14] relates to Candida albicans. Kind of series: Antifungal activity against Candida albicans CGMCC 2.2086 assessed as inhibition of fungal growth incubated for 48 hrs in presence of NaCl. It is filed as functional.
Series [15] relates to Candida albicans. Kind of series: Antifungal activity against Candida albicans CGMCC 2.2086 assessed as inhibition of fungal growth incubated for 48 hrs in presence of KCl. Type of series: functional.
In series [16] the test system is Candida albicans. Nature of the series: Antifungal activity against Candida albicans CGMCC 2.2086 assessed as inhibition of fungal growth incubated for 48 hrs in presence of NH4Cl. Type of series: functional.
Series [17] has as its system Candida albicans. Nature of the series: Antifungal activity against Candida albicans CGMCC 2.2086 assessed as inhibition of fungal growth incubated for 48 hrs in presence of MgCl2. Type of series: functional.
Series [18] concerns Candida albicans. Nature of the series: Antifungal activity against Candida albicans CGMCC 2.2086 assessed as inhibition of fungal growth incubated for 48 hrs in presence of ZnCl2. It is filed as functional.
For series [19], the system named is Candida albicans. Nature of the series: Antifungal activity against Candida albicans CGMCC 2.2086 assessed as inhibition of fungal growth incubated for 48 hrs in presence of FeCl3. It is filed as functional.
The test system of series [20] is Candida albicans. Kind of series: Antifungal activity against Candida albicans CGMCC 2.2086 assessed as inhibition of fungal growth incubated for 48 hrs in presence of CaCl2. Type of series: functional.
Series [21] in a line: Stability of the compound in NaCl assessed as change in secondary structure by CD spectra analysis. Type of series: physicochemical.
Series [22] is described as follows: Stability of the compound in KCl assessed as change in secondary structure by CD spectra analysis. Type of series: physicochemical.
Series [23] is described as follows: Stability of the compound in NH4Cl assessed as change in secondary structure by CD spectra analysis. Type of series: physicochemical.
Series [24] is described as follows: Stability of the compound in MgCl2 assessed as change in secondary structure by CD spectra analysis. Type of series: physicochemical.
Series [25] can be described thus: Stability of the compound in ZnCl2 assessed as change in secondary structure by CD spectra analysis. It is filed as physicochemical.
Series [26] in a line: Stability of the compound in FeCl3 assessed as change in secondary structure by CD spectra analysis. Type of series: physicochemical.
Series [27] is described as follows: Stability of the compound in CaCl2 assessed as change in secondary structure by CD spectra analysis. Type of series: physicochemical.
Series [28] has as its system Candida albicans. Nature of the series: Antifungal activity against Candida albicans CGMCC 2.2086 infected in C57BL/6 mouse keratitis model assessed as reduction in clinical scores at 1 mg/ml administered as 10 uL eye drop every 5 mins for first 1 hr and every 30 mins for next 7 hrs. To be noted: route ou, time 8.0 hrs. It is filed as functional, organism-based.
Series [29] deals with Candida albicans. Nature of the series: Antifungal activity against Candida albicans CGMCC 2.2086 infected in C57BL/6 mouse keratitis model assessed as reduction in fungal cell count at 1 mg/ml administered as 10 uL eye drop every 5 mins for first 1 hr and every 30 mins for next 7 hrs. Type of series: functional, organism-based. The note with it: route ou, time 8.0 hrs.
Series [30] relates to Candida albicans. Nature of the series: Antifungal activity against Candida albicans CGMCC 2.2086 infected in C57BL/6 mouse keratitis model assessed as reduction in mycelia in the eyes at 1 mg/ml administered as 10 uL eye drop every 5 mins for first 1 hr and every 30 mins for next 7 hrs by Schiff staining based assay. To be noted: route ou, time 8.0 hrs. Type of series: functional, organism-based.

≈ marks a conversion by molar mass, not a printed value. Calls of active or inactive are those of the source. The calls are words filed in the database; no cut-off is given here.

As a reminder, the HC50 is the concentration giving 50% haemolysis. Regarding `CC(C)[C@H](N)C(=O)N[C@H](C(=O)N[C@H](CCCNC(=N)N)C(=O)N[C@@H](CCCNC(=N)N)C(=O)N[C@@H](Cc1c[nH]cn1)C(=O)N[C@H](C(=O)N[C@H](C(=O)N[C@H](C(=O)N[C@H](C(=O)N[C@H](CCCNC(=N)N)C(=O)N[C@@H](CCCNC(=N)N)C(=O)N[C@@H](Cc1c[nH]cn1)C(=O)N[C@H](C(=O)N[C@H](C(=O)N[C@H](C(=O)N[C@H](C(=O)N[C@H](CCCNC(=N)N)C(=O)N[C@@H](CCCNC(=N)N)C(=O)N[C@@H](Cc1c[nH]cn1)C(=O)N[C@H](C(=O)N[C@H](C(=O)N[C@H](C(=O)N[C@H](C(=O)N[C@H](CCCNC(=N)N)C(=O)N[C@@H](CCCNC(=N)N)C(=O)N[C@@H](Cc1c[nH]cn1)C(=O)N[C@H](C(=O)N[C@H](C(N)=O)C(C)C)C(C)C)C(C)C)C(C)C)C(C)C)C(C)C)C(C)C)C(C)C)C(C)C)C(C)C)C(C)C)C(C)C)C(C)C)C(C)C)C(C)C`, the MIC95 was determined as 8 µM (≈ 27.2 µg/mL) in the series on Candida albicans [1]; 4 µM (≈ 13.6 µg/mL) in the series on Candida tropicalis; 8 µM (≈ 27.2 µg/mL) with Candida albicans [2]; 4 µM (≈ 13.6 µg/mL) in the series on Candida albicans [3]; 8 µM (≈ 27.2 µg/mL) in the series on Candida albicans [4]; 8 µM (≈ 27.2 µg/mL) in the series on Candida albicans [5]. Moreover, the MIC95 in the series on Candida albicans [6] is 8 µM (≈ 27.2 µg/mL); in the series with Candida albicans [7], 8 µM (≈ 27.2 µg/mL); in the series on Candida albicans [8] it was 8 µM (≈ 27.2 µg/mL); in the series with Candida albicans [9] it was 4 µM (≈ 13.6 µg/mL); with Candida albicans [10], 8 µM (≈ 27.2 µg/mL); in the series with Candida parapsilosis, 4 µM (≈ 13.6 µg/mL). For the same molecule, the MIC95 in the series with Candida albicans [14] amounted to 64 µM; in the series on Candida albicans [15] it was 16 µM; with Candida albicans [16], 8 µM; with Candida albicans [17] it was 16 µM; in the series with Candida albicans [18] it was 32 µM; with Candida albicans [19], 16 µM. Further, in the series on Candida albicans [20], the MIC95 is 32 µM. In addition, the HC50 at 1 h in series [11] is more than 512 µM. Further, in series [12], the hemolysis at 1 h, 512 µM turned out to be 21.7%. Moreover, the Activity result (in series [13]; in the series on HEK293) was “Toxic” throughout. Moreover, the Stability result in [21] is on record as “Unstable”; in [22], “Stable”; in [23], “Stable”; in [24], “Stable”; in [25] it was “Stable”; in series [26] it was “Stable”. Besides, the Stability entry in series [27] is “Stable”.

As to `C[C@@H]1[C@H](O)[C@@H](C)/C=C/C=C/C=C/C=C/C=C/C=C/C=C/[C@H](O[C@@H]2O[C@H](C)[C@@H](O)[C@H](N)[C@@H]2O)C[C@@H]2O[C@](O)(C[C@@H](O)C[C@@H](O)[C@H](O)CC[C@@H](O)C[C@@H](O)CC(=O)O[C@H]1C)C[C@H](O)[C@H]2C(=O)O` [AMPHOTERICIN B], the MIC95 in the series with Candida albicans [1], in the series on Candida tropicalis, with Candida albicans [2], in the series on Candida albicans [3], in the series with Candida albicans [4] and in the series with Candida albicans [5] was 0.25 µM (≈ 0.231 µg/mL) in each case. Also, the MIC95 with Candida albicans [6], with Candida albicans [7], in the series with Candida albicans [8], with Candida albicans [9], in the series with Candida albicans [10] and with Candida parapsilosis was 0.25 µM (≈ 0.231 µg/mL) throughout. The outcome in the series on Candida albicans [28] and with Candida albicans [29] was Active. For the same molecule, the Activity result in the series on Candida albicans [30] is “Active; Mycelia In The Eyes Was Either Absent Or Minimal”.
